Reference: patent US4485117A, “Antiprotozoal compounds” (priority 1981, dated 1984)
pIC50: −log10 of the molar value. Converted amounts (≈) assume the structure as drawn. Where two headings read alike, the source gives them in different places. One block for each molecule: values may come before it.

Experiments:
[1] = molecular target: cyclo oxygenase; assay: Enzyme assay, inhibition of cyclo oxygenase; format: biochemical, rabbit; details: in vitro
[2] = molecular target: lipoxygenase; assay: Enzyme assay, inhibition of lipoxygenase; format: biochemical, rabbit; details: in vitro
[3] = tested on: rat eye; assay: Anti-inflammatory activity in the rat eye (bacterial endotoxin induced); format: in vivo; details: assessed at 24 and 48 hours
Method: The anti-inflammatory activity in the rat eye was determined, following both oral and topical administration, of 2-(4-t-butylcyclohexyl)-3-hydroxy-1,4-naphthoquinone. The inflammatory response for the test employed developed following injection of gram-negative bacterial endotoxin into the rat foodpad (Rosenbaum et. al Nature 286, 611-613 (1980)).
Vasodilation was assessed at 24 and 48 hours using a slit lamp, the rats then killed and the aqueous humour aspirated for determination of protein concentrations and total leucocyte numbers. The results are shown below as ED50.

[4] = in vivo; details: rat, rats, oral, read-out: acute oral LD50
Method: The acute oral LD50 's of compounds of formula (I) in rats were determined by standard techniques.

[5] = tested on: E. tenella; assay: In vitro activity against E. tenella in cell cultures; format: cell-based; details: Eimeria tenella, 96 hours, read-out: MIC (minimum inhibitory concentration)
Method: Compounds tested in Example 5 were assessed for their activity against E. tenella. In the method employed cell cultures were infected with sporozoite suspensions of E. tenella immediately after addition of the compounds. […] After incubation for 96 hours the cultures were fixed and the cells were stained with 0.1% toluidine blue. The stained cultures were examined microscopically for presence of parasites.

[6] = tested on: Plasmodium falciparum; assay: Inhibitory effect on Plasmodium falciparum in culture (G-3H-hypoxanthine uptake); format: cell-based; details: for pIC50: P. falciparum culture, 36 hours, read-out: ED50 (the source's name)
Method: Compounds of the following formula, including compounds of formula (I), were examined for their inhibitory effect on Plasmodium falciparum. [drawing 11]
The test method was a modification of that described by Desjardins et al., Antimicrob. Agents and Chemotherapy,1979,16,710-718. Compounds were dissolved in ethanol at a concentration of 1000 mg/L and dilutions down to 1 mg/L were made. The drug solutions were serially diluted using RPMI 1640 medium+10% human plasma in microtitration plates. Parasitised and fresh red blood cells were added together with G^3 H-hypoxanthine, in RPMI 1640 medium+10% human plasma and the cultures incubated for 36 hours. Cultures were then harvested, the particulate contents collected on a glass-fibre filter paper and washed copiously with water. The filter papers were dried and the radioactivity measured using a scintillation counter. Infected untreated and uninfected untreated cultures were included as controls. Percent inhibition was correlated with dose to provide an ED50.

[7] = tested on: Eimeria tenella; assay: In vivo anticoccidiosis screen in chicks, E. tenella; set-up: species or system Eimeria tenella; male Ross Ranger chicks; details: 6 days, fifth day of infection, groups of 5
Method: (§1) Compounds tested in Example 7(a) were examined in an in vivo anticoccidiosis screen.
(§2) The compounds were administered to groups of 5 male Ross Ranger chicks (7 days old), at various dosages in the diet, for 6 days. The chicks were each infected with Eimeria tenella and E. acervulina one day after the beginning of the medication. The number of birds cleared of E. tenella lesions was noted on the fifth day of infection as was the presence or absence of E. acervulina oocysts in the droppings. The results are shown in Table 3, in which the numbers refer to the number of birds cleared of E. tenella and the letters indicate the presence or absence of E. acervulina /A=absent; P=present; M=95% clearance in comparision with untreated controls/.

[8] = tested on: E. acervulina; assay: In vivo anticoccidiosis screen in chicks, E. acervulina; set-up: species or system Eimeria acervulina; male Ross Ranger chicks; key: A: absent; P: present; M: 95% clearance in comparision with untreated controls; details: 6 days, fifth day of infection
Method: as §1, §2

[9] = tested on: malaria; details: background art; cited from earlier work

Structure (SMILES): CC(C)(C)C1CCC(C2=C(O)C(=O)c3ccccc3C2=O)CC1 (stereo not shown) [2-(4'-t-butylcyclohexyl)-3-hydroxy-1,4-naphthoquinone]
pIC50 [1]: 4.24
pIC50 [2]: 4.64
ED50 ([3]; Rattus norvegicus, oral): 5 to 25 mg/kg
ED50, anti-inflammatory activity in the rat eye ([3]; topical): 10-20 ug/eye
LD50 [4]: > 1000 mg/kg

Structure (SMILES): CCC(C)(C)C1CCC(C2=C(O)C(=O)c3ccccc3C2=O)CC1 (stereo not shown) [2-hydroxy-3-(4'-t-pentylcyclohexyl)-1,4-naphthoquinone]
pIC50 [1]: 4.20
pIC50 [2]: 4.54

MIC [5]: 4 µM (≈ 1.25 µg/mL)
pIC50 ([6]; Plasmodium falciparum, 36 h): 6.52
Structure (SMILES): CC(C)(C)C1CCCC(C2=C(O)C(=O)c3ccccc3C2=O)C1 (stereo not drawn) [3'-t-Butyl (80% trans), reference compound]

MIC [5]: 0.092 µM (≈ 0.0311 µg/mL)
pIC50 ([6]; Plasmodium falciparum, 36 h): 8.39
Structure (SMILES): O=C1C(O)=C([C@H]2CC[C@H](C3CCCCC3)CC2)C(=O)c2ccccc21 [4'-Cyclohexyl (100% trans), reference compound]
number of birds cleared of E. tenella lesions ([7]; 50 ppm in diet): 1/5
number of birds cleared of E. tenella lesions ([7]; 100 ppm in diet): 5/5
number of birds cleared of E. tenella lesions ([7]; 200 ppm in diet): 5/5
presence or absence of E. acervulina oocysts in the droppings ([8]; 50 ppm in diet): P
presence or absence of E. acervulina oocysts in the droppings ([8]; 100 ppm in diet): P
presence or absence of E. acervulina oocysts in the droppings ([8]; 200 ppm in diet): A

MIC [5]: 0.46 µM (≈ 0.124 µg/mL)
pIC50 ([6]; Plasmodium falciparum, 36 h): 8.04
Structure (SMILES): C[C@H]1CC[C@H](C2=C(O)C(=O)c3ccccc3C2=O)CC1 [4'-Methyl (100% trans), reference compound]

Structure (SMILES): CC(C)(C)C1CCC(C2=C(O)C(=O)c3ccccc3C2=O)CC1 (stereo not drawn) [4'-t-Butyl (50% trans), 2-(4'-t-butylcyclohexyl)-3-hydroxy-1,4-naphthoquinone]
pIC50 ([6]; 2160 min): 9.22

Structure (SMILES): CC(C)(C)C1CCC(C2=C(O)C(=O)c3ccccc3C2=O)CC1 (stereo not drawn) [4'-t-Butyl (75% trans), 2-(4'-t-butylcyclohexyl)-3-hydroxy-1,4-naphthoquinone]
pIC50 ([6]; 2160 min): 10.25

Structure (SMILES): CC(C)(C)C1CCC(C2=C(O)C(=O)c3ccccc3C2=O)CC1 (stereo not drawn) [4'-t-Butyl (80% trans), 2-(4'-t-butylcyclohexyl)-3-hydroxy-1,4-naphthoquinone]
number of birds cleared of E. tenella lesions ([7]; 50 ppm in diet): 0/5
number of birds cleared of E. tenella lesions ([7]; 100 ppm in diet): 5/5
MIC [5]: 0.01 µM (≈ 0.00312 µg/mL)
pIC50 ([6]; 2160 min): 10.43
presence or absence of E. acervulina oocysts in the droppings ([8]; 50 ppm in diet): P
presence or absence of E. acervulina oocysts in the droppings ([8]; 100 ppm in diet): A

MIC [5]: 0.025 µM (≈ 0.00781 µg/mL)
pIC50 ([6]; Plasmodium falciparum, 36 h): 8.97
Structure (SMILES): CC(C)(C)[C@H]1CC[C@@H](C2=C(O)C(=O)c3ccccc3C2=O)CC1 [4'-t-Butyl (100% cis), 2-(cis-4'-t-butylcyclohexyl)-3-hydroxy-1,4-naphthoquinone]

pIC50 ([6]; Plasmodium falciparum, 36 h): 10.24
Structure (SMILES): CC(C)(C)[C@H]1CC[C@H](C2=C(O)C(=O)c3ccccc3C2=O)CC1 [4'-t-Butyl (100% trans), 2-(trans-4'-t-butylcyclohexyl)-3-hydroxy-1,4-naphthoquinone]

Structure (SMILES): CCC(C)(C)C1CCC(C2=C(O)C(=O)c3ccccc3C2=O)CC1 (stereo not drawn) [4'-t-Pentyl (50% trans), 2-hydroxy-3-(4'-t-pentylcyclohexyl)-1,4-naphthoquinone]
MIC [5]: 0.0096 µM (≈ 0.00313 µg/mL)

Structure (SMILES): CCC(C)(C)C1CCC(C2=C(O)C(=O)c3ccccc3C2=O)CC1 (stereo not drawn) [4'-t-Pentyl (60% trans), 2-hydroxy-3-(4'-t-pentylcyclohexyl)1,4-naphthoquinone]
number of birds cleared of E. tenella lesions ([7]; 50 ppm in diet): 4/5
number of birds cleared of E. tenella lesions ([7]; 100 ppm in diet): 5/5
number of birds cleared of E. tenella lesions ([7]; 200 ppm in diet): 5/5
pIC50 ([6]; Plasmodium falciparum, 36 h): 10.22
presence or absence of E. acervulina oocysts in the droppings ([8]; 50 ppm in diet): M (95% clearance in comparision with untreated controls)
presence or absence of E. acervulina oocysts in the droppings ([8]; 100 ppm in diet): A
presence or absence of E. acervulina oocysts in the droppings ([8]; 200 ppm in diet): A

Structure (SMILES): O=C1C(O)=C(CCCCCCCCC2CCCCC2)C(=O)c2ccccc21 [Menoctone, 2-(8-cyclohexyloctyl)-3-hydroxy-1,4-naphthoquinone, reference compound]
activity in man (in words) [9]: poor activity in man
ED50 ([6]; 36 h): 2.55×10^-7
